This is an account of results in paper PMC11413854, “Reversible Control of Native GluN2B-Containing NMDA Receptors with Visible Light” (ACS Chemical Neuroscience, 2024).

Like-named read-outs stand apart in the source and are kept apart here.

In the experiment the target is T1, GluN1/GluN2B NMDA receptors (UniProt P35439+Q01097).
T1 construct: expressed in transfected cells; host or cells: Xenopus laevis oocytes (nuclear cDNA injection)
The experiment can be described thus: TEVC electrophysiology on Xenopus oocytes expressing wt GluN1/GluN2B NMDARs. To be noted: for remaining activity at 2 µM / remaining activity at 7.5 µM / remaining activity at 10 µM / remaining activity at 25 µM / remaining activity at 70 µM / remaining activity at 1 µM / remaining activity at 5 µM / remaining activity at 50 µM / remaining activity at 90 µM / remaining activity at 100 µM: GluN1/GluN2B wt, read-out: Relative current (IOpto/I0); for UV/dark IC50 ratio (365 nm PSS vs dark): preilluminated in solution; for shift in IC50 compared to parent compound: trans configuration (dark). Format: cell-based, rat GluN1, mouse GluN2B. From the text: The activity of OptoNAM-3 was functionally monitored by electrophysiology on Xenopus oocytes (see Methods). To assess the light-dependent effect, we tested the activities of the dark PSS (mostly trans) and the UV PSS (mostly cis, see above) separately. For each concentration, we prepared a solution divided into two samples: one in which the compound was kept in the dark for the duration of the experiment (dark PSS state); and the other that was preilluminated with either 350 or 365 nm light (350 or 365 nm PSS) and then kept away from the light for the duration of the experiment in order to avoid photoisomerization of the compounds by ambient light (see Methods). […] We generated dose–response curves of OptoNAM-3 dark and UV PSS on wild-type (wt) GluN1/GluN2B NMDA receptors (Figure 3A) in the presence of saturating concentrations of agonists (100 μM glutamate and glycine).
We used cDNA coding for rat GluN1–1a (named GluN1 herein) (GenBank: U08261.1), rat GluN2A (GenBank: D13211.1), mouse GluN2B (GenBank: D10651.2), rat GluA1 flop (GenBank: M36418.2), and rat Myc-GluA2(Q)-flip (GenBank: AF164344.1) cloned into pcDNA3-based expression plasmids. GluK2 (GenBank: Z11548.1) corresponds to the fully RNA-edited version.[80] The GluN2B-ΔNTD construct is from ref[45] and GluN2B–N615K is from ref[81]. Single mutants GluN2B-Q110G and GluN1-L135H were from ref[19]. The GluA2 cDNA contains a Myc tag ([…]) fused between the signal peptide and the N-terminus sequences, and the GluA2 subunit is […] for its Q/R/N site (GluA2(Q)) to allow permeation of homomeric GluA2 receptors.[2] cDNAs coding for rat GluN2C (GenBank: M91563.1) and GluN2D subunits (GenBank: L31611.1) were in prK5 plasmids.
Oocytes from Xenopus laevis were used for heterologous expression of recombinant NMDA receptors studied using a two-electrode voltage clamp (TEVC). Female Xenopus laevis were housed and ovary bags harvested according to the European Union guidelines (husbandry authorizations #C75–05–31 and #D75–05–31; project authorizations #05137.02; and Apafis #28867–2020121814485893). Fragments of ovary bags were also purchased from the “Centre de Ressources Biologiques Xenopes” (now TEFOR, Paris Saclay, France) and from the European Xenopus Resource Center (EXRC, Portsmouth, UK). Xenopus laevis oocytes were harvested and prepared as previously described in ref[82].
Expression of recombinant NMDA receptors was obtained by oocyte nuclear coinjection of 37 nL of a mixture of cDNAs (at 30 ng/μL) coding for GluN1–1a and various GluN2 subunits (ratio 1:1). The protocol in ref[43] was followed for the expression of GluN1/GluN2A/GluN2B triheteromers. The oocytes were transferred in 96-well plates filled with Barth solution (in mM: 88 NaCl, 1 KCl, 0.33 Ca(NO3)2, 0.41 CaCl2, 0.82 MgSO4, 2.4 NaHCO3, and 7.5 HEPES, pH adjusted to 7.3 with NaOH), supplemented with gentamicin ([…]) and 50 μM APV, a selective NMDA receptor antagonist. Plates were then stored at 18 °C for 24 h for GluN1/GluN2A expression and for 48––72 h for the expression of GluN1/Glu2B, GluN1/GluN2A/GluN2B, and mutants.
TEVC recordings were performed 1–3 days following injection. TEVC recordings were performed using an Oocyte Clamp amplifier OC-725 (Warner Instruments) and computer-controlled via a 1440A Digidata (Molecular Devices). Currents were sampled at 100 Hz and low-pass-filtered at 20 Hz using an 8-pole Bessel filter (900 Series, Frequency Devices Inc.).

Setting [1] is: 365 nm PSS, 100 µM glutamate + glycine, Xenopus oocytes, read-out: IC50 on GluN1/GluN2B receptors, preilluminated with 365 nm.
Where [2] appears, read: Sup. Fig. 2G, trans isomer, source: this paper, read-out: activity (Ki or IC50).

T1 sequence (Q01097 27-1482, other chains not shown): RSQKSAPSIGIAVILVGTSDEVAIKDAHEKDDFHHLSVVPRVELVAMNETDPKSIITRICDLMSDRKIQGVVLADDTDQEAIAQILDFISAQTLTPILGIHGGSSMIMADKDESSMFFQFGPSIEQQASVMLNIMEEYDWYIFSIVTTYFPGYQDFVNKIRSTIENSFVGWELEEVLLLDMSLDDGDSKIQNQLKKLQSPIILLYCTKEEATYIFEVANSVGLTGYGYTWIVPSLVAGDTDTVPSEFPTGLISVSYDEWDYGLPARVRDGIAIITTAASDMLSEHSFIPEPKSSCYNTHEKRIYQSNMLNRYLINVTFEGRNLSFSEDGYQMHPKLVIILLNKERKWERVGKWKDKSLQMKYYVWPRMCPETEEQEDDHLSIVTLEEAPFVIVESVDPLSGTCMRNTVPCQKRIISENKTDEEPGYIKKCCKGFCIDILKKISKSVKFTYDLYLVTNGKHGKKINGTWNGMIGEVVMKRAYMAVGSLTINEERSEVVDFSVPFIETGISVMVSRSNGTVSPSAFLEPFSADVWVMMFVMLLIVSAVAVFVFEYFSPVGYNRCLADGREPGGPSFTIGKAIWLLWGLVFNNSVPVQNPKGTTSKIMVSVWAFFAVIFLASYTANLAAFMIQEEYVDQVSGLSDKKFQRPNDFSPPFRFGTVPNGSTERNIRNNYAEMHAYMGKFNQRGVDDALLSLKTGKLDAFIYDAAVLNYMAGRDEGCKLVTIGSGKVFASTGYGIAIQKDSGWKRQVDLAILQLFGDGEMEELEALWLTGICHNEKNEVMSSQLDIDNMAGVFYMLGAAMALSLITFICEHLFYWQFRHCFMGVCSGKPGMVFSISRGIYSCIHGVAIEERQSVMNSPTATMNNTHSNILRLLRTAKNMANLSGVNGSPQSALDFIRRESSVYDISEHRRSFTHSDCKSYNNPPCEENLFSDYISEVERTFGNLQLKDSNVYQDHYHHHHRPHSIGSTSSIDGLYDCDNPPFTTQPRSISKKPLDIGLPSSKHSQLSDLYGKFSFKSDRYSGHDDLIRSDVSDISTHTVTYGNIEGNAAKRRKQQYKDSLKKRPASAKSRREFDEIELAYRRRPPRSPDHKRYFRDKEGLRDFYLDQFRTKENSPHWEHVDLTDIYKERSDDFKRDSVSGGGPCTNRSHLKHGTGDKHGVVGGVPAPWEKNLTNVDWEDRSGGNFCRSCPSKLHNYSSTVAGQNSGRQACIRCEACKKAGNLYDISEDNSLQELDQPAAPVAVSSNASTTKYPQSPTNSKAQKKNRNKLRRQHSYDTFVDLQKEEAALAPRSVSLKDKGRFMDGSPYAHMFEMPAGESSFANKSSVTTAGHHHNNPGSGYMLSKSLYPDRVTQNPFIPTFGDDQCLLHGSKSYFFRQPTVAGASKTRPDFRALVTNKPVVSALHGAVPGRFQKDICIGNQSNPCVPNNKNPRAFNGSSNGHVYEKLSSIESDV

Consider `Nc1ccnc(/N=N/c2ccccc2)c1` [OptoNAM-1, (E)-2-(phenyldiazenyl)pyridin-4-amine], for which the “shift in IC50 compared to parent compound” value is recorded as greater than 1000 fold. Moreover, the IC50 under setting [1] was found to be 37 ± 2 µM. Moreover, where the note is “365 nm PSS”, the remaining activity at 2 µM was 91.1%, the remaining activity at 7.5 µM stood at 81.8%, the remaining activity at 10 µM turned out to be 78% and the remaining activity at 25 µM was 58.1%. Besides, for the setting “365 nm PSS”, the remaining activity at 70 µM turned out to be 35%. Also, under “dark PSS (trans)”, the remaining activity at 2 µM is 83.8%, the remaining activity at 7.5 µM was 66.1%, the remaining activity at 10 µM was found to be 49.9% and the remaining activity at 25 µM was found to be 28.4%. Moreover, for the setting “dark PSS (trans)”, the remaining activity at 70 µM came out at 13.4%. The IC50 under setting [2] was found to be 11 µM. Moreover, the “UV/dark IC50 ratio (365 nm PSS vs dark)” value (Xenopus oocytes) turned out to be 3.4 fold.

Take `Cc1cc(N)nc(/N=N/c2ccccc2)c1` [OptoNAM-2, (E)-4-methyl-6-(phenyldiazenyl)pyridin-2-amine]: the “shift in IC50 compared to parent compound” value is recorded as greater than 1000 fold. Under setting [1], the IC50 was 117 ± 10 µM. Where the note is “365 nm PSS”, the remaining activity at 1 µM is 94.5%, the remaining activity at 5 µM stood at 92.7%, the remaining activity at 10 µM came out at 90% and the remaining activity at 25 µM is 84.2%. For the same compound, under “365 nm PSS”, the remaining activity at 50 µM came to 63.5%, the remaining activity at 90 µM was found to be 50% and the remaining activity at 100 µM was determined as 49.3%. In addition, for the setting “dark PSS (trans)”, the remaining activity at 1 µM was 92.5%, the remaining activity at 5 µM worked out at 84.8%, the remaining activity at 10 µM is 75.5% and the remaining activity at 25 µM was 47.3%. In addition, for the setting “dark PSS (trans)”, the remaining activity at 50 µM was 31.1%, the remaining activity at 90 µM came out at 22.1% and the remaining activity at 100 µM was determined as 14.4%. Besides, under setting [2], the IC50 is 24 µM. Where the note is “Xenopus oocytes”, the “UV/dark IC50 ratio (365 nm PSS vs dark)” value amounted to 4.9 fold.
